# Reference: patent US20230151432A1, “KIF18A INHIBITORS FOR TREATMENT OF NEOPLASTIC DISEASES” (AMGEN INC., priority 2020, published 2023)
# Where two headings read alike, the source gives them in different places.
# How the values were obtained:
# [1] = target: T1, Recombinant human KIF18A (1-467 His-tagged) protein (Homo sapiens, UniProt Q8NI77); test: KIF18A Enzyme Assay (microtubule-stimulated ATPase activity, ADP-Glo); type: biochemical; settings: 30 nM KIF18A, 75 μM ATP
# T1 construct: Recombinant human KIF18A (1-467 His-tagged) protein; His; made in house
# T1 sequence (Q8NI77 1-467): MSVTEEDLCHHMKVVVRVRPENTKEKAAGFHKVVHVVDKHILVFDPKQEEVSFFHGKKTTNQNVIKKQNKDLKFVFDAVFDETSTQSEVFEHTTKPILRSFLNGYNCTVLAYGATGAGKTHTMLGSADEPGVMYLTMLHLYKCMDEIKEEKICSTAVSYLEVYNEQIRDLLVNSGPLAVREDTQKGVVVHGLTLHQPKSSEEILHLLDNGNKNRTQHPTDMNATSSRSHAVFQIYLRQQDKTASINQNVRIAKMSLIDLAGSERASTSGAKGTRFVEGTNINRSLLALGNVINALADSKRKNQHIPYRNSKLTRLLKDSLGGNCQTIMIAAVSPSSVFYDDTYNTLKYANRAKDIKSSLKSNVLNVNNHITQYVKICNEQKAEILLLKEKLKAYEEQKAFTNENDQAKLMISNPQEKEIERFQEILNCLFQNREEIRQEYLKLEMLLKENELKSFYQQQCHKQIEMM
# T1 sequence (P02550 whole entry partner): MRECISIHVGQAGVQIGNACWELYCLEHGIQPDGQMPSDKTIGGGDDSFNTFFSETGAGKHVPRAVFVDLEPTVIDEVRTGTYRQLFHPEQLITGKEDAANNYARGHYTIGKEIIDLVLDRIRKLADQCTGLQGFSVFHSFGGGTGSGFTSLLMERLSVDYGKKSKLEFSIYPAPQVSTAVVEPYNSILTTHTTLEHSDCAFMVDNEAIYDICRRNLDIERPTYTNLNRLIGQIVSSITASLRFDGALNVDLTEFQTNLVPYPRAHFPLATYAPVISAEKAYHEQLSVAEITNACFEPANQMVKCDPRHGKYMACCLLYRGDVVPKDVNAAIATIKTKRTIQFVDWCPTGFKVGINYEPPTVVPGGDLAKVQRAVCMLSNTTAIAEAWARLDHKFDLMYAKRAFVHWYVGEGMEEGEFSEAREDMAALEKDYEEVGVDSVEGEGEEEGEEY
# T1 sequence (P02554 whole entry partner): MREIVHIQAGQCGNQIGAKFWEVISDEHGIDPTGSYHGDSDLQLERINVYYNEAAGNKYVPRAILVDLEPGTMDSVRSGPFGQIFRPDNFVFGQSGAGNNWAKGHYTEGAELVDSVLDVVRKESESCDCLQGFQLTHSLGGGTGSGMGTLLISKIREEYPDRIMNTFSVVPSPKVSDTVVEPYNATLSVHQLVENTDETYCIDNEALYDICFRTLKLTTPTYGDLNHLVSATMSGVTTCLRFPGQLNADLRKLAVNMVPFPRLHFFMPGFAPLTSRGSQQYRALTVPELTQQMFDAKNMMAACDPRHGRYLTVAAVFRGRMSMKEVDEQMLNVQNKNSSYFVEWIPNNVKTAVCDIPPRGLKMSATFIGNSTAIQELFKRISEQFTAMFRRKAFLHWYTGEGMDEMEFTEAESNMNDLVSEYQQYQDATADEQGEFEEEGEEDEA
# Description: KIF18A Enzyme Assay: Microtubule-stimulated ATPase activity assay was used to measure KIF18A enzyme activity after treatment with compound. Compounds were 2-fold serially diluted in DMSO (Sigma Inc) over 22-point concentration range. […] The assay measures ADP formed from the ATPase reaction.
# Concentration-response curve-fitting and IC50 determination was performed using Genedata Screener Software (Standard 15.0.1, Genedata Inc) with a four-parameter logistic regression fit model.
# [2] = tested on: OVCAR-8 NCI/ADR-RES cells; test: Nuclear count assay in multidrug resistant cells, with or without P-gp inhibitor; type: cell-based, human; settings: 4-day NCA; for EC50: Homo sapiens, 96 h, read-out: EC50 (Count POC)
# Description: Compound was added to the cells with a final volume of 200 μL in complete media containing 0.5% DMSO.
# The plates were sealed and incubated for 1 hour at room temperature in the dark. Cells were stored at 4° C. in the dark until data acquisition. […] The Total Valid Object Count was represented as a Count POC (Percentage of DMSO Control) using the following formula:
# Briefly, OVCAR-8 cells were seeded in duplicate in a Corning 96-well Flat Clear Bottom Black Polystyrene plates (Corning, N.Y.) in 100 μL of appropriate complete media at the appropriate density and grown for 24 hours. […] After 4 days (96 hours) of treatment, the cells were fixed by removing 100 μL of complete media from each well and replacing it with 100 μL of 2×formaldehyde (final 4%) and incubating the plates for 15 minutes at room temperature. […] The plates were sealed and incubated for 1 hour at room temperature in the dark. Cells were stored at 4° C. in the dark until data acquisition. […] The Total Valid Object Count was represented as a Count POC (Percentage of DMSO Control) using the following formula:
# Count POC=(Total Valid Object Count in treated well)[…](Total Valid Object Count in DMSO treated wells)×100
# Compound concentration and Count POC values were plotted using GraphPad Prism software (V7.0.4) and curve-fitting was performed with 4-parameter equation (variable slope). The concentration-response curves and standard deviation represent two independent experiments run in duplicate.
# [3] = tested on: human bone marrow mononuclear cells (HBMNC); test: BrdU cell cycle analysis and live cell count in normal cells; type: cell-based
# Description: (§1) The effect KIF18A inhibitor treatment has on proliferation of normal somatic cells (e.g., not neoplastic cells) was tested by assaying proliferation of human bone marrow mononuclear cells (HBMNCs), primary human foreskin fibroblast cells (hFSF) and human mammary epithelial cells via a 5-bromo-2′-deoxyuridine (BrdU) incorporation assay in which BrdU, an analog of the nucleoside thymidine, is used to identify proliferating cells (Payton et. al., Molecular Cancer Therapeutics, 17(12):2575-85 (2018)). Cells were analyzed on BD LSRFortessa flow cytometer using BD FACSDiva software (BD Biosciences), and post-acquisition data analysis was performed using FSC-Express software (De Novo). The percentage of BrdU positive gated events on the stacked DNA content histograms were reported.
# To further examine the effects of KIF18A inhibitor treatment on HBMNC, two normal donors were assessed using the BrdU coupled cell cycle assay and cell count assay (96 hours) was. […] In particular, the amount of BrdU-stained proliferating cells treated with Ispinesib, paclitaxel, or a CDK 4/6 inhibitor (palbociclib) was far less than the amount of vehicle control-treated BrdU-stained cells. […] KIF18A inhibitor treatment was also analyzed for impact on live cell count. After 96 hours, live cells were counted by Vi-CELL XR Cell Viability Analyzer (Beckman Coulter).
# To investigate whether KIF18A inhibitors could circumvent this normal cell toxicity barrier, we examined the effects of Compounds C9 and C11 on a panel of cycling normal somatic cell types. First, we treated human bone marrow mononuclear cells (HBMNC) from two normal donors with DMSO, Compound C9 and C11 at 1 μM, ispinesib at 0.05 μM, paclitaxel at 0.05 μM, or palbociclib at 1 μM for 48 h (cell cycle) or 96 h (cell growth).
# BrdU and cell cycle analysis. Human bone marrow mononuclear cells (HBMNCs) from two normal donors (#37612, #37534) were cultured for 8 days in defined media as previously described (Payton et al 2018). HBMNCs were seeded in 24-well plate at 1.2×10^6 cells per well in duplicate plates. Cells were treated with DMSO, Compound C9 (1 μM), Compound C11 (1 μM), ispinesib (0.05 μM), paclitaxel ([…]), or palbociclib (1 μM). Cells were collected at 48 h (cell cycle) and 96 h (cell growth). The first set of plates were pulsed with BrdU for 2 h and processing for BrdU cell cycle analysis as previously described (Payton et al 2018). Cells were analyzed on BD LSRFortessa flow cytometer running BD FACSDiva software and post-acquisition data analysis was performed using FSC-Express software. Data was reported for the percentage of BrdU and subG1 gated populations. The second set of plates were collected, and cells counted using Vi-CELL XR Cell Viability Analyzer (Beckman Coulter).
# [4] = tested on: human foreskin fibroblast (hFSF) cells; test: BrdU incorporation assay in normal cells; type: cell-based; settings: 48 hours
# Description: as §1
# [5] = tested on: human mammary epithelial cells (HMEC); test: BrdU incorporation assay in normal cells; type: cell-based; settings: 48 hours
# Description: as §1
structure (smiles),measurement,setting,value
"Cc1cc(NC(=O)c2ccc([S@](=N)(=O)C3CC3)cc2N2CCC3(CC2)CC3)nc(N2CCC(F)(F)CC2)n1 (single isomer, unassigned) [Compound C1, 2-(6-Azaspiro[2.5]octan-6-yl)-4-(R-cyclopropylsulfonimidoyl)-N-(2-(4,4-difluoro-1-piperidinyl)-6-methyl-4-pyrimidinyl)benzamide]",IC50,[1],64 nM
"Cc1cc(NC(=O)c2ccc(S(=N)(=O)C3CC3)cc2N2CCC3(CC2)CC3)nc(N2CCC(F)(F)CC2)n1 (single isomer, unassigned) [Compound C2, 2-(6-azaspiro[2.5]octan-6-yl)-4-(S-cyclopropylsulfonimidoyl)-N-(2-(4,4-difluoro-1-piperidinyl)-6-methyl-4-pyrimidinyl)benzamide]",IC50,[1],57 nM
"Cc1cc(NC(=O)c2ccc(NS(=O)(=O)[C@H](C)CO)cc2N2CCC3(CC2)CC3)nc(N2CCC(F)(F)CC2)n1 (single isomer, unassigned) [Compound C5]",IC50,[1],62 nM
"Cc1cc(NC(=O)c2ccc(NS(=O)(=O)[C@@H](C)CO)cc2N2CCC3(CC2)CC3)nc(N2CCC(F)(F)CC2)n1 (single isomer, unassigned) [Compound C6]",IC50,[1],70 nM
"CC(C)(C)NS(=O)(=O)c1cccc(NC(=O)c2ccc(S(=O)(=O)C3(C)COC3)cc2N2CCC3(CC2)CC3)c1 [Compound C8, N-(3-(N-(tert-Butyl)sulfamoyl)phenyl)-4-((3-methyloxetan-3-yl)sulfonyl)-2-(6-azaspiro[2.5]octan-6-yl)benzamide]",IC50,[1],61 nM
"CC(C)(C)NS(=O)(=O)c1cccc(NC(=O)c2ccc(NC(C)(C)CO)nc2N2CCC3(CC2)CC3)c1 [Compound C10, N-(3-(N-(tert-Butyl)sulfamoyl)phenyl)-6-((1-hydroxy-2-methylpropan-2-yl)amino)-2-(6-azaspiro[2.5]octan-6-yl)nicotinamide]",IC50,[1],70 nM
CC(=O)O[C@H]1C(=O)[C@@]2(C)[C@H]([C@H](OC(=O)c3ccccc3)[C@]3(O)C[C@H](OC(=O)[C@H](O)[C@@H](NC(=O)c4ccccc4)c4ccccc4)C(C)=C1C3(C)C)[C@]1(OC(C)=O)CO[C@@H]1C[C@@H]2O [Paclitaxel],fold change in potency in the presence vs in the absence of the P-gp inhibitor,[2]; GF120918 1 μM,greater than 500 fold
same,EC50,[2]; absence of the P-gp inhibitor,> 1000 nM
same,EC50,[2]; presence of P-gp inhibitor GF120918 (1 μM),1.7 nM
same,live cell count relative to vehicle control,[3],lower cell count
CC(=O)c1c(C)c2cnc(Nc3ccc(N4CCNCC4)cn3)nc2n(C2CCCC2)c1=O [Palbociclib],live cell count relative to vehicle control,[3],lower cell count
same,BrdU incorporation relative to DMSO treated cells,[4],decrease in BrdU incorporation
same,BrdU incorporation relative to DMSO treated cells,[5],decrease in BrdU incorporation
